Reference: patent US9546153B2, “Bicyclic heterocycle substituted pyridyl compounds useful as kinase modulators” (BRISTOL-MYERS SQUIBB COMPANY, priority 2012, dated 2017)
Read-outs that look alike come from different tables or passages of the source.

Key:
[1] = biological target: IRAK4 (Homo sapiens (Human), UniProt Q9NWZ3); experiment: IRAK4 Inhibition Assay; type: biochemical; conditions: ATP 500 μM; IRAK4 0.6 nM; 60 min at room temperature
Procedure: The assays were performed in U-bottom 384-well plates. […] The reaction was initiated by the combination of IRAK4 with substrates and test compounds. The reaction was incubated at room temperature for 60 min. and terminated by adding 45 μL of 35 mM EDTA to each sample. The reaction mixture was analyzed on the Caliper LABCHIP® 3000 (Caliper, Hopkinton, Mass.) by electrophoretic separation of the fluorescent substrate and phosphorylated product.

[2] = system: TLR2 induced IL-6 in peripheral blood mononuclear cells (PBMCs); experiment: PBMC TLR2 Induced IL-6 Assay; type: cell-based, human; conditions: human PBMCs, 10 μg/ml lipoteichoic acid for 5 hours, IL-6 by ELISA, value without asterisk, read-out: Cell IC50
In short: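 IL-6 ELISA of supernatants after a 5 h challenge with the TLR2 agonist lipoteichoic acid (10 μg/ml). Before stimulation, human PBMCs (250000 cells/well; RPMI, 10% heat-inactivated FCS) received compound for 30 min at 37° C. Values given as IC50 or EC50.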

Chain of IRAK4 (Q9NWZ3 whole entry, species assumed): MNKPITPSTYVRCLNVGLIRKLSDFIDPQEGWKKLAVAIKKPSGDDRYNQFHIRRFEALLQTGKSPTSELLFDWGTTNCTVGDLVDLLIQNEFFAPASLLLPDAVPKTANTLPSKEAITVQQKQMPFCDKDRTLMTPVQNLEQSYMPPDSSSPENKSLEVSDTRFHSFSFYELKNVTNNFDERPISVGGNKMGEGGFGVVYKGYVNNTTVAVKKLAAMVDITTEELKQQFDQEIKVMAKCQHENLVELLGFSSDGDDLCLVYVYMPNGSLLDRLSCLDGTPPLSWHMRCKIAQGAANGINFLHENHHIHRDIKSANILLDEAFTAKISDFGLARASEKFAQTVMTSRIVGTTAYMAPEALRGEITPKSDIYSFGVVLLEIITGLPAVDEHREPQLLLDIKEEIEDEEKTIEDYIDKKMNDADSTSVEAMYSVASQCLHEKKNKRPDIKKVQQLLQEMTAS

| SMILES | IC50 [1] [nM] | IC50 ([2]; Homo sapiens, PBMC, 5 h) [nM] | IC50 [2] [nM] |
| --- | --- | --- | --- |
| CC(C)(O)[C@H](F)CNC(=O)c1cnc(Nc2ccc3ncsc3c2)cc1NC12CCC(NC(=O)c3ccccc3)(CC1)C2 [Example 394] | 10.2 | 311 |  |
| CC(C)(O)[C@H](F)CNC(=O)c1cnc(Nc2ccc3ncccc3c2)cc1NC1CCCC1(F)F (some centres unmarked) [Example 360] | 2.8 | 73 |  |
| CC(C)(O)[C@H](F)CNC(=O)c1cnc(Nc2ccc3ncc(C#N)cc3n2)cc1NC1CCCOC1 (some centres unmarked) [Example 442] | 5.6 | 106 |  |
| CC(C)Nc1cc(Nc2ccc3ncccc3n2)ncc1C(=O)NC[C@@H](F)C(C)(C)O [Example 123] | 3.6 | 271 |  |
| CCNc1cc(Nc2ccc3ncc(F)cc3n2)ncc1C(=O)NC[C@@H](F)C(C)(C)O [Example 437] | 4.9 | 214 |  |
| CC(C)Nc1cc(Nc2ccc3nsnc3c2)ncc1C(=O)NC[C@@H](F)C(C)(C)O [Example 41] | 3.5 | 318 |  |
| CC(C)(O)[C@H](F)CNC(=O)c1cnc(Nc2ccc3nccn3n2)cc1NC1CCC1 [Example 272] | 4.8 | 175 |  |
| CC(CO)Nc1cc(Nc2nc3scnc3cc2F)ncc1C(=O)NC[C@@H](F)C(C)(C)O (some centres unmarked) [Example 460] | 3.3 |  | 553 |
| Cc1ccccc1CNc1cc(Nc2ccc3ncsc3c2)ncc1C(=O)NC[C@@H](F)C(C)(C)O [Example 166] | 8.4 | 266 |  |
| CC(C)(O)[C@H](F)CNC(=O)c1cnc(Nc2ccn3nccc3n2)cc1NC1CCC(F)C1 (some centres unmarked) [Example 254] | 2.5 |  | 131 |
| CC(C)(O)[C@H](F)CNC(=O)c1cnc(Nc2cnc3[nH]ccc3c2)cc1NC1CC1 [Example 434] | 6.5 | 52 |  |
| CC(C)Nc1cc(Nc2ccn3nccc3n2)ncc1C(=O)NC12CCC(N)(CC1)CC2 [Example 318, N-(4-aminobicyclo[2.2.2]octan-1-yl)-4-(isopropylamino)-6-(pyrazolo[1,5-a]pyrimidin-5-ylamino)nicotinamide] | 6.9 | 278 |  |
| CC(C)(O)[C@H](F)CNC(=O)c1cnc(Nc2ccc3nsnc3c2)cc1N[C@@H](c1ccccc1)[C@H](O)CO [Example 102] | 2.9 | 312 |  |
| CC(C)(O)[C@H](F)CNC(=O)c1cnc(Nc2ccc3ncccc3n2)cc1NC1CCCC1F (some centres unmarked) [Example 405] | 5.8 |  | 788 |
| CC(C)(O)[C@H](F)CNC(=O)c1cnc(Nc2ncc3ncccc3n2)cc1NC1CCC(F)C1 (some centres unmarked) [Example 448] | 16.5 |  | 47 |

Further lines, with some results ahead:

| IC50 [1] [nM] | SMILES | IC50 ([2]; Homo sapiens, PBMC, 5 h) [nM] | IC50 [2] [nM] |
| --- | --- | --- | --- |
| 2.7 | CC(C)(O)[C@H](F)CNC(=O)c1cnc(Nc2ccc3ncsc3c2)cc1NC1CCOCC1 [Example 52] | 116 |  |
| 5.3 | CC(C)(O)[C@H](F)CNC(=O)c1cnc(Nc2ccc3ncsc3c2)cc1NC1CCCCCC1 [Example 87] | 271 |  |
| 9.5 | CNC(=O)[C@H]1CC[C@H](NC(=O)c2cnc(Nc3nc4ccnn4cc3F)cc2NC2CCOCC2)CC1 [Example 509] | 1200 |  |
| 7.4 | CC1COCCC1Nc1cc(Nc2ccc3ncsc3c2)ncc1C(=O)NC[C@@H](F)C(C)(C)O (some centres unmarked) [Example 233] |  | 469 |
| 1.9 | CC(C)(O)[C@H](F)CNC(=O)c1cnc(Nc2ccc3nccnc3c2)cc1NC1CC2CCC1C2 (some centres unmarked) [Example 95] | 58 |  |
| 9 | CC(C)(O)[C@H](F)CNC(=O)c1cnc(Nc2ccc3nccnc3c2)cc1NC1CCCCCC1 [Example 88] | 457 |  |
| 5.2 | CC(C)(O)C1CC(Nc2cc(Nc3ccc4ncsc4c3)ncc2C(=O)NC[C@@H](F)C(C)(C)O)C1 (some centres unmarked) [Example 64] | 440 |  |
| 58 | CC(Nc1cc(Nc2ccc3ncsc3c2)ncc1C(=O)NC[C@@H](F)C(C)(C)O)C1CC1 (some centres unmarked) [Example 106] | 570 |  |
| 4.2 | O=C(NC1CCC(O)CC1)c1cnc(Nc2ccc3ncsc3c2)cc1NC1CCCC1 (centres unmarked) [Example 157] | 836 |  |
| 3.4 | CC(C)(O)[C@H](F)CNC(=O)c1cnc(Nc2ccc3ncsc3c2)cc1NC1CC(CO)C1 (some centres unmarked) [Example 69] | 365 |  |
